Reference: patent US20030129629A1, “Methods and compositions for the identification, assessment, prevention, and therapy of human cancers” (Millennium Pharmaceuticals, Inc., priority 2000, published 2003)
Values joined by “and” are separate entries in the source; they are usually repeats but may differ in a detail not shown here. Identical values can stand only once. Counter-ions that a name gives are not always drawn. Like-named read-outs stand apart in the source and are kept apart here.

Test system: 60 cancer cell lines (NCI 60 cancer cell line series)
Experiment: NCI-DTP in vitro cancer screen, sulforhodamine B (SRB) growth inhibition, 48 hour exposure
Type: cell-based, human
Description: Cancer Cell Line Preparation. Sixty cancer cell lines were obtained from the National Cancer Institute Developmental Therapeutics Program (NCI-DTP). Procedures for growing cells and testing compounds have been described previously (Scudiero et al., Cancer Res. 1988, 48:4827-4833; Stinson et al., Anticancer Res.; Myers et al., Electrophoresis 1997, 18:647-653). Cells are plated on day 0 at a density individualized for each cell line so that they will generally be sub-confluent at the end of the assay period. On day 1, a compound is added in the format for a duplicate-well, 5-dose, ten-fold interval dose response study.
No-drug, no-cell and no-growth controls are included. On day 3 the cells are processed for staining with sulforhodamine B (SRB), which reflects the amount of cell mass present at the end of a 48 hour exposure to the test agent. From dose response curves based on the SRB data, various parameters can be determined. […] More precisely, the quantity used in the calculation to be described is the potency measure −log{GI50}.
Activity database (A). […] This subset of compounds was selected from the larger 23,000 compound database available from the DTP. The compounds were selected on the basis of their known mechanism of action and chemical structure. The average potency −log{GI50} was extracted from the comma-delimited text files available through the Web at http://www.nci.nih.gov/intra/lmp/jnwbio.html. Subsequently, these −log{GI50} values were inspected manually and classified as indicating either Low, Medium or High sensitivity to each compound.

Q: With `CC[C@]1(O)C[C@H]2CN(CCc3c([nH]c4ccccc34)[C@@](C(=O)OC)(c3cc4c(cc3OC)N(C=O)[C@H]3[C@@](O)(C(=O)OC)[C@H](OC(C)=O)[C@]5(CC)C=CCN6CC[C@]43[C@@H]65)C2)C1` [Vincristine sulfate] as the compound, how does the “classification of cell line as Low(1), Medium(2), High(3) sensitivity to compound” value (shortened to “classification of cell line”) (Breast BT-549 CL5013) read?
A: 1

Q: What about the “classification of cell line” value (Breast HS-578T CL5006) of the same compound?
A: 2

Q: And the “classification of cell line” value (Breast MCF7(I) CL5001)?
A: 2

Q: What about the “classification of cell line” value (Breast MCF7/ADRr CL5002) of the same compound?
A: 2

Q: And the “classification of cell line” value (Breast MDA-MB-231 CL5005)?
A: 2

Q: And the “classification of cell line” value (Breast MDA-MB-435 CL5011)?
A: 2

Q: And the “classification of cell line” value (Breast MDA-N CL5012)?
A: 2

Q: What about the “classification of cell line” value (Breast T-47D CL5014) of the same compound?
A: 1

Q: And the “classification of cell line” value (CNS SF-268 CL12014)?
A: 2

Q: What about the “classification of cell line” value (CNS SF-295 CL12015) of the same compound?
A: 3

Q: And the “classification of cell line” value (CNS SF-539 CL12016)?
A: 3

Q: What about the “classification of cell line” value (CNS SNB-19 CL12002) of the same compound?
A: 2

Q: What about the “classification of cell line” value (CNS SNB-75(I) CL12005) of the same compound?
A: 2

Q: What about the “classification of cell line” value (CNS U251(I) CL12009) of the same compound?
A: 2

Q: What about the “classification of cell line” value (Colon COLO-250 CL4010) of the same compound?
A: 2

Q: What about the “classification of cell line” value (Colon HCC-2998 CL4002) of the same compound?
A: 2

Q: What about the “classification of cell line” value (Colon HCT-15 CL4015) of the same compound?
A: 2

Q: What about the “classification of cell line” value (Colon HCT-116 CL4003) of the same compound?
A: 2

Q: And the “classification of cell line” value (Colon HT29(I) CL4001)?
A: 3

Q: What about the “classification of cell line” value (Colon KM12 CL4017) of the same compound?
A: 3

Q: What about the “classification of cell line” value (Colon SW-620 CL4009) of the same compound?
A: 3

Q: What about the “classification of cell line” value (Leukemia CCRF-CEM(I) CL7003) of the same compound?
A: 3

Q: And the “classification of cell line” value (Leukemia HL-60(I) CL7008)?
A: 3

Q: What about the “classification of cell line” value (Leukemia K562(I) CL7005) of the same compound?
A: 3

Q: What about the “classification of cell line” value (Leukemia MOLT-4 CL7006) of the same compound?
A: 3

Q: And the “classification of cell line” value (Leukemia RPMI-8226(I) CL7010)?
A: 3

Q: And the “classification of cell line” value (Leukemia SR CL7019)?
A: 3

Q: And the “classification of cell line” value (Melanoma LOX IMVI CL10001)?
A: 3

Q: What about the “classification of cell line” value (Melanoma M14 CL10014) of the same compound?
A: 2

Q: What about the “classification of cell line” value (Melanoma MALME-3M CL10002) of the same compound?
A: 2

Q: What about the “classification of cell line” value (Melanoma SK-MEL-2 CL10005) of the same compound?
A: 2

Q: What about the “classification of cell line” value (Melanoma SK-MEL-5 CL10007) of the same compound?
A: 3

Q: And the “classification of cell line” value (Melanoma SK-MEL-28 CL10008)?
A: 1

Q: What about the “classification of cell line” value (Melanoma UACC-62 CL10020) of the same compound?
A: 2

Q: And the “classification of cell line” value (Melanoma UACC-257 CL10021)?
A: 2

Q: And the “classification of cell line” value (NSCLC A549/ATCC CL1004)?
A: 2

Q: And the “classification of cell line” value (NSCLC EKVX CL1008)?
A: 1

Q: And the “classification of cell line” value (NSCLC HOP-62 CL1026)?
A: 2

Q: What about the “classification of cell line” value (NSCLC HOP-92 CL1029) of the same compound?
A: 2

Q: What about the “sensitivity classification Low(1)/Medium(2)/High(3)” value (NSCLC NCI-H23(I) CL1001) of the same compound?
A: 3

Q: And the “classification of cell line” value (NSCLC NCI-H226 CL1013)?
A: 2

Q: And the “sensitivity classification Low(1)/Medium(2)/High(3)” value (NSCLC NCI-H332M CL1017)?
A: 2

Q: What about the “sensitivity classification Low(1)/Medium(2)/High(3)” value (NSCLC NCI-H460 CL1021) of the same compound?
A: 3

Q: What about the “sensitivity classification Low(1)/Medium(2)/High(3)” value (NSCLC NCI-H522 CL1003) of the same compound?
A: 3

Q: What about the “sensitivity classification Low(1)/Medium(2)/High(3)” value (Ovarian IGROV1 CL6010) of the same compound?
A: 3

Q: What about the “sensitivity classification Low(1)/Medium(2)/High(3)” value (Ovarian OVCAR-3 CL6001) of the same compound?
A: 3

Q: And the “sensitivity classification Low(1)/Medium(2)/High(3)” value (Ovarian OVCAR-4 CL6002)?
A: 2

Q: And the “sensitivity classification Low(1)/Medium(2)/High(3)” value (Ovarian OVCAR-5 CL6003)?
A: 1

Q: And the “sensitivity classification Low(1)/Medium(2)/High(3)” value (Ovarian OVCAR-8 CL6005)?
A: 3

Q: What about the “sensitivity classification Low(1)/Medium(2)/High(3)” value (Ovarian SK-OV-3 CL6011) of the same compound?
A: 2

Q: What about the “sensitivity classification Low(1)/Medium(2)/High(3)” value (Prostate DU-145 CL11003) of the same compound?
A: 2

Q: And the “sensitivity classification Low(1)/Medium(2)/High(3)” value (Prostate PC-3(I) CL11001)?
A: 2

Q: What about the “sensitivity classification Low(1)/Medium(2)/High(3)” value (Renal 786-0 CL9018) of the same compound?
A: 2

Q: What about the “sensitivity classification Low(1)/Medium(2)/High(3)” value (Renal A498 CL9013) of the same compound?
A: 3

Q: What about the “sensitivity classification Low(1)/Medium(2)/High(3)” value (Renal ACHN CL9023) of the same compound?
A: 2

Q: And the “sensitivity classification Low(1)/Medium(2)/High(3)” value (Renal CAKI-1 CL9015)?
A: 2

Q: What about the “sensitivity classification Low(1)/Medium(2)/High(3)” value (Renal RXF-393 CL9016) of the same compound?
A: 2

Q: And the “sensitivity classification Low(1)/Medium(2)/High(3)” value (Renal SN12C CL9008)?
A: 2

Q: And the “sensitivity classification Low(1)/Medium(2)/High(3)” value (Renal TK10 CL9024)?
A: 1

Q: What about the “sensitivity classification Low(1)/Medium(2)/High(3)” value (Renal UO-31 CL9004) of the same compound?
A: 1

Q: How did the “sensitivity classification Low(1)/Medium(2)/High(3)” value turn out when `O=NN(CCCl)C(=O)NCCCl` [BCNU] was run?
A: 2 and 1 and 3
